Source: PubChem BioAssay AID1963970 (Molecular Pharmacology Branch, DTP, NCI, 2024)

Test system: 931267-113-T-J1-PDC multicell spheroid viability
Experiment: Anticancer human tumor 931267-113-T-J1-PDC patient-derived colon adenocarcinoma cell line growth inhibition [PI3K]
Settings: for IC50: curve of first compound; for viability, T/C: stronger effect = lower value
Summary of the method: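 Viability of mixed-cell spheroids was determined after exposure to pairwise combinations, one partner being inavolisib, alpelisib, duvelisib or copanlisib. Highest tested concentration matched clinical Cmax where known and 10 microM where not, descending in half-log steps.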
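Also: viability read 7 days after compound addition.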

SMILES: CNC(=O)c1ccc(N2C(=S)N(c3ccc(C#N)c(C(F)(F)F)c3)C(=O)C2(C)C)cc1F + CC(Nc1ncnc2nc[nH]c12)c1cc2cccc(Cl)c2c(=O)n1-c1ccccc1
- IC50 (second compound 0.0316 µM): > 10000 nM
- IC50 (second compound 0.1 µM): > 10000 nM
- IC50 (second compound 0.316 µM): > 10000 nM
- IC50 (second compound 1 µM): > 10000 nM
- IC50 (second compound 3.16 µM): > 10000 nM
- IC50 (second compound 10 µM): > 10000 nM
- viability, T/C (second compound 0.0316 µM, first compound 0.0316 µM): 107%
- viability, T/C (second compound 0.0316 µM, first compound 0.1 µM): 96.7%
- viability, T/C (second compound 0.0316 µM, first compound 0.316 µM): 113%
- viability, T/C (second compound 0.0316 µM, first compound 1 µM): 97.2%
- viability, T/C (second compound 0.0316 µM, first compound 3.16 µM): 111%
- viability, T/C (second compound 0.0316 µM, first compound 10 µM): 109%
- viability, T/C (second compound 0.1 µM, first compound 0.0316 µM): 108%
- viability, T/C (second compound 0.1 µM, first compound 0.1 µM): 101%
- viability, T/C (second compound 0.1 µM, first compound 0.316 µM): 104%
- viability, T/C (second compound 0.1 µM, first compound 1 µM): 104%
- viability, T/C (second compound 0.1 µM, first compound 3.16 µM): 101%
- viability, T/C (second compound 0.1 µM, first compound 10 µM): 103%
- viability, T/C (second compound 0.316 µM, first compound 0.0316 µM): 103%
- viability, T/C (second compound 0.316 µM, first compound 0.1 µM): 104%
- viability, T/C (second compound 0.316 µM, first compound 0.316 µM): 100%
- viability, T/C (second compound 0.316 µM, first compound 1 µM): 107%
- viability, T/C (second compound 0.316 µM, first compound 3.16 µM): 115%
- viability, T/C (second compound 0.316 µM, first compound 10 µM): 103%
- viability, T/C (second compound 1 µM, first compound 0.0316 µM): 102%
- viability, T/C (second compound 1 µM, first compound 0.1 µM): 103%
- viability, T/C (second compound 1 µM, first compound 0.316 µM): 96.6%
- viability, T/C (second compound 1 µM, first compound 1 µM): 102%
- viability, T/C (second compound 1 µM, first compound 3.16 µM): 117%
- viability, T/C (second compound 1 µM, first compound 10 µM): 109%
- viability, T/C (second compound 3.16 µM, first compound 0.0316 µM): 100%
- viability, T/C (second compound 3.16 µM, first compound 0.1 µM): 98.9%
- viability, T/C (second compound 3.16 µM, first compound 0.316 µM): 92.4%
- viability, T/C (second compound 3.16 µM, first compound 1 µM): 103%
- viability, T/C (second compound 3.16 µM, first compound 3.16 µM): 96.5%
- viability, T/C (second compound 3.16 µM, first compound 10 µM): 104%
- viability, T/C (second compound 10 µM, first compound 0.0316 µM): 99%
- viability, T/C (second compound 10 µM, first compound 0.1 µM): 97.9%
- viability, T/C (second compound 10 µM, first compound 0.316 µM): 93.9%
- viability, T/C (second compound 10 µM, first compound 1 µM): 96.1%
- viability, T/C (second compound 10 µM, first compound 3.16 µM): 102%
- viability, T/C (second compound 10 µM, first compound 10 µM): 84.4%

SMILES: Cn1cnc2c(F)c(Nc3ccc(Br)cc3Cl)c(C(=O)NOCCO)cc21 + CC(Nc1ncnc2nc[nH]c12)c1cc2cccc(Cl)c2c(=O)n1-c1ccccc1
- IC50 (second compound 0.0316 µM): 123 nM
- IC50 (second compound 0.1 µM): 133 nM
- IC50 (second compound 0.316 µM): 117 nM
- IC50 (second compound 1 µM): 107 nM
- IC50 (second compound 3.16 µM): 96.7 nM
- IC50 (second compound 10 µM): 61.6 nM
- viability, T/C (second compound 0.0316 µM, first compound 0.00949 µM): 84%
- viability, T/C (second compound 0.0316 µM, first compound 0.03 µM): 71.9%
- viability, T/C (second compound 0.0316 µM, first compound 0.0949 µM): 51.7%
- viability, T/C (second compound 0.0316 µM, first compound 0.3 µM): 38.4%
- viability, T/C (second compound 0.0316 µM, first compound 0.949 µM): 23%
- viability, T/C (second compound 0.0316 µM, first compound 3 µM): 12.8%
- viability, T/C (second compound 0.1 µM, first compound 0.00949 µM): 89.1%
- viability, T/C (second compound 0.1 µM, first compound 0.03 µM): 80.1%
- viability, T/C (second compound 0.1 µM, first compound 0.0949 µM): 55.4%
- viability, T/C (second compound 0.1 µM, first compound 0.3 µM): 33.1%
- viability, T/C (second compound 0.1 µM, first compound 0.949 µM): 25.1%
- viability, T/C (second compound 0.1 µM, first compound 3 µM): 13.6%
- viability, T/C (second compound 0.316 µM, first compound 0.00949 µM): 92.1%
- viability, T/C (second compound 0.316 µM, first compound 0.03 µM): 77.9%
- viability, T/C (second compound 0.316 µM, first compound 0.0949 µM): 51.8%
- viability, T/C (second compound 0.316 µM, first compound 0.3 µM): 33.4%
- viability, T/C (second compound 0.316 µM, first compound 0.949 µM): 23.1%
- viability, T/C (second compound 0.316 µM, first compound 3 µM): 12.9%
- viability, T/C (second compound 1 µM, first compound 0.00949 µM): 88.8%
- viability, T/C (second compound 1 µM, first compound 0.03 µM): 72%
- viability, T/C (second compound 1 µM, first compound 0.0949 µM): 51.6%
- viability, T/C (second compound 1 µM, first compound 0.3 µM): 32.3%
- viability, T/C (second compound 1 µM, first compound 0.949 µM): 24.4%
- viability, T/C (second compound 1 µM, first compound 3 µM): 10.6%
- viability, T/C (second compound 3.16 µM, first compound 0.00949 µM): 74%
- viability, T/C (second compound 3.16 µM, first compound 0.03 µM): 69.2%
- viability, T/C (second compound 3.16 µM, first compound 0.0949 µM): 48.1%
- viability, T/C (second compound 3.16 µM, first compound 0.3 µM): 31.9%
- viability, T/C (second compound 3.16 µM, first compound 0.949 µM): 21.4%
- viability, T/C (second compound 3.16 µM, first compound 3 µM): 11%
- viability, T/C (second compound 10 µM, first compound 0.00949 µM): 79.2%
- viability, T/C (second compound 10 µM, first compound 0.03 µM): 62.8%
- viability, T/C (second compound 10 µM, first compound 0.0949 µM): 41%
- viability, T/C (second compound 10 µM, first compound 0.3 µM): 29%
- viability, T/C (second compound 10 µM, first compound 0.949 µM): 15.2%
- viability, T/C (second compound 10 µM, first compound 3 µM): 7.35%
